# According to patent publication US8633251B2, “Derivatives of aminoalkanols, method of obtaining of aminoalkanols and their use” (Uniwersytet Jagiellonski, priority 2008, dated 2014):
# Counter-ions that a name gives are not always drawn. Like-named read-outs stand apart in the source and are kept apart here.
# Columns and labels:
# [1] = system: pentylenetetrazol-induced seizures; experiment: Subcutaneous Metrazol Test (ScMet), mice; type: in vivo
# Procedure: In order to define anticonvulsant activity, screening tests were performed, using animal models of seizures. […] The tests were based on administration of a compound to an animal and after certain time inducing state similar to epilepsy attack in human. Each substance (after dissolving in methylcellulose) was normally tested in doses 30, 100, and 300 mg/kg body weight (b.w.) (mice) or in 30 and 50 mg/kg b.w. (rats) in two possible routes of administration: intraperitoneal (i.p.) or oral (p.o.). Appropriate tests were performed 0.5 and 4 h after administration of the compound. […] (mice) the tests were also performed in doses 10 and 3 mg/kg b.w.
# Subcutaneous Metrazol Test (ScMet) is a chemical test, where compounds are tested for activity in absence seizures (petit mal epilepsy). Pentetrazol (metrazol) is considered to block chloride channel in the GABAA receptor complex, therefore at a certain dose in animals it causes myoclonic jerks, next—clonic seizures, and then tonic seizures. The procedure consists in administration of a tested compound and after 0.5 or 4 h subcutaneous administration of pentylenetetrazol in the dose of 85 mg/kg b.w. (mice) or 70 mg/kg b.w. (rats) in a 0.85% solution in 0.9% NaCl. […] Normally the test is performed in single animals.
# neurotoxicity (rotarod) = experiment: Neurotoxicity test (TOX), rotarod, mice; type: in vivo
# [2] = system: maximal electroshock seizures; experiment: Maximum Electroshock Seizure (MES) test, mice; type: in vivo; conditions: mice; for responders at 30 mg/kg / responders at 100 mg/kg: Mus musculus; for responders at 30 mg/kg: read-out: MES, No. of protected animals/No. of used animals; for responders at 100 mg/kg: read-out: MES, No. of protected animals/No. of used animals (converted)
# Summary of the method: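 Mice received compound in methylcellulose i.p. or p.o. at 30, 100 and 300 mg/kg, with some tests at 10 and 3 mg/kg. At 0.5 or 4 h, after tetracaine eye-drops, current was delivered through corneal electrodes (60 Hz, 0.2 s, 50 mA). Groups were one mouse at 30 and 300 mg/kg and three at 100 mg/kg.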
# [3] = mice, dose 100 mg/kg b.w., time 0.5 h
# [4] = mice, dose 100 mg/kg b.w., time 4 h
# [5] = mice, dose 300 mg/kg b.w., time 0.5 h
# [6] = dose 100 mg/kg b.w., time 0.5 h
# [7] = mice, dose 300 mg/kg b.w., 0.5 h
Compound,melting point,"TOX, No. of animals exhibiting motor impairment/no. of used animals (neurotoxicity (rotarod); [3])","TOX, No. of animals exhibiting motor impairment/no. of used animals (neurotoxicity (rotarod); [5])","TOX, No. of animals exhibiting motor impairment/no. of used animals (neurotoxicity (rotarod); [7])","MES, No. of protected animals/No. of used animals ([2]; dose 300 mg/kg b.w., 0.5 h)",other results
"Cc1cccc(C)c1OCCNC(C)(C)CCO (as salt: hydrochloride) [Compound 15, 3N-[(2,6-dimethylphenoxy)ethyl]amino-3-methyl-1-butanol hydrochloride]",170 to 172 °C,,,,,
"Cc1cccc(C)c1OCCN[C@H](CO)C(C)C (as salt: hydrochloride) [Compound 16, L-2N-[(2,6-dimethylphenoxy)ethyl]amino-3-methyl-1-butanol hydrochloride]",162 to 164 °C,,,,,
"Cc1cccc(C)c1OCCNCCCCCO (as salt: hydrochloride) [Compound 17, 5N-[(2,6-dimethylphenoxy)ethyl]amino-1-pentanol hydrochloride]",138 to 140 °C,,,,,
"Cc1cccc(C)c1OCCCN[C@H](C)CO (as salt: hydrochloride) [Compound 52, R-(−)-2N-[(2,6-dimethylphenoxy)propyl]amino-1-propanol hydrochloride]",119 to 120 °C,,,,,
"CCC(O)CNCCCOc1c(C)cccc1C (racemic) [Compound 54, R,S-1N-[(2,6-dimethylphenoxy)propyl]amino-2-butanol]",,,,,,"ScMet, No. of protected animals/No. of used animals ([1]; dose 30 mg/kg b.w., 0.5 h): 1/5; ScMet, No. of protected animals/No. of used animals ([1]; dose 30 mg/kg b.w., 4 h): 1/1; TOX, No. of animals exhibiting motor impairment/no. of used animals (neurotoxicity (rotarod); mouse, in vivo, 30 mg/kg): 1/4; TOX, No. of animals exhibiting motor impairment/no. of used animals (neurotoxicity (rotarod); mouse, in vivo, 300 mg/kg): 4/4; MES, No. of protected animals/No. of used animals ([2]; dose 100 mg/kg b.w., 0.5 h): 2/2"
"CCC(NC(=O)COc1c(C)cccc1C)C(N)=O (racemic) [Compound 66, D,L-2N-[(2,6-dimethylphenoxy)acetyl]aminobutyramide]",182 to 184 °C,,,,,
"Cc1cccc(OCCNCC(O)c2ccccc2)c1C (stereo not shown) [Compound 4, R,S-2N-[(2,3-dimethylphenoxy)ethyl]amino-1-phenylethanol]",,4/8,3/4,,,"ScMet, No. of protected animals/No. of used animals ([1]; dose 30 mg/kg b.w., time 0.5 h): 1/5; TOX, No. of animals exhibiting motor impairment/no. of used animals (neurotoxicity (rotarod); [4]): 1/4"
"Cc1cccc(C)c1OCCNC[C@@H](C)O [Compound 10, R-(−)-1N-[(2,6-dimethylphenoxy)ethyl]amino-2-propanol]",76 to 77 °C,8/8,4/4,,,"TOX, No. of animals exhibiting motor impairment/no. of used animals (neurotoxicity (rotarod); mice, dose 30 mg/kg b.w., time 0.5 h): 1/4; TOX, No. of animals exhibiting motor impairment/no. of used animals (neurotoxicity (rotarod); [4]): 1/3; responders at 30 mg/kg ([2]; dose 30 mg/kg b.w., time 0.5 h): 100%; responders at 100 mg/kg ([2]; dose 100 mg/kg b.w., time 4 h): 100%"
"Cc1cccc(C)c1OCCNC[C@H](O)c1ccccc1 [Compound 20, R-(−)-2N-[(2,6-dimethylphenoxy)ethyl]amino-1-phenylethanol]",78 to 80 °C,8/8,4/4,,,"responders at 30 mg/kg ([2]; dose 30 mg/kg b.w., time 0.5 h): 100%"
"Cc1cccc(OCCCNC(C)(C)CO)c1C [Compound 47, 2N-[(2,3-dimethylphenoxy)propyl]amino-2-methyl-1-propanol]",128 to 130 °C,8/8,4/4,,,"TOX, No. of animals exhibiting motor impairment/no. of used animals (neurotoxicity (rotarod); [4]): 4/4; responders at 100 mg/kg [2, 6]: 100%"
"Cc1cccc(C)c1OCCCNC(C)(C)CO [Compound 53, 2N-[(2,6-dimethylphenoxy)propyl]amino-2-methyl-1-propanol]",73 to 75 °C,,,4/4,,"TOX, No. of animals exhibiting motor impairment/no. of used animals (neurotoxicity (rotarod); mice, dose 30 mg/kg b.w., 0.5 h): 1/4; TOX, No. of animals exhibiting motor impairment/no. of used animals (neurotoxicity (rotarod); mice, dose 100 mg/kg b.w., 0.5 h): 8/8; responders at 100 mg/kg ([2]; dose 100 mg/kg b.w., 0.5 h): 100%"
"Cc1cccc(C)c1OCC(=O)N(C)CCO [Compound 59, R,S-2N-[(2,6-dimethylphenoxy)acetyl]-2N-methylamino-1-ethanol]",,,,,1/1,"ScMet, No. of protected animals/No. of used animals ([1]; dose 300 mg/kg b.w., 0.5 h): 1/1"
"Cc1cccc(Cl)c1OCC(=O)NCC(C)O (stereo not shown) [Compound 68, R,S-1N-[(2-chlor-6-methylphenoxy)acetyl]amino-2-propanol]",,,,4/4,1/1,"ScMet, No. of protected animals/No. of used animals ([1]; dose 300 mg/kg b.w., 0.5 h): 1/1; ED50 (MES, mice, i.p.) ([2]; i.p., time not given): 97.93 mg/kg b.w."
"Cc1cccc(Cl)c1OCC(=O)N[C@@H](C)CO [Compound 71, S-(+)-2N-[(2-chlor-6-methylphenoxy)acetyl]amino-1-propanol]",,,,4/4,1/1,
"CCC(O)CNC(=O)COc1c(C)cccc1Cl (stereo not shown) [Compound 72, R,S-1N-[(2-chlor-6-methylphenoxy)acetyl]amino-2-butanol]",,,,4/4,1/1,"ScMet, No. of protected animals/No. of used animals ([1]; dose 300 mg/kg b.w., 0.5 h): 1/1"
"CCC(CO)NC(=O)COc1c(C)cccc1Cl (stereo not shown) [Compound 73, R,S-2N-[(2-chlor-6-methylphenoxy)acetyl]amino-1-butanol]",,,,4/4,1/1,"ScMet, No. of protected animals/No. of used animals ([1]; dose 100 mg/kg b.w., 0.5 h): 3/5; ScMet, No. of protected animals/No. of used animals ([1]; dose 300 mg/kg b.w., 0.5 h): 1/1; MES, No. of protected animals/No. of used animals ([2]; dose 300 mg/kg b.w., 4 h): 1/1"
"Cc1cc(Cl)ccc1OCC(=O)NCC(C)O (stereo not shown) [Compound 80, R,S-1N-[(4-chlor-2-methylphenoxy)acetyl]amino-2-propanol]",,,,4/4,1/1,"ScMet, No. of protected animals/No. of used animals ([1]; dose 300 mg/kg b.w., 0.5 h): 1/1"
"CCC(O)CNC(=O)COc1ccc(Cl)cc1C (stereo not shown) [Compound 81, R,S-1N-[(4-chlor-2-methylphenoxy)acetyl]amino-2-butanol]",,,,4/4,1/1,"ScMet, No. of protected animals/No. of used animals ([1]; dose 300 mg/kg b.w., 0.5 h): 1/1"
"R,S-1N-[(2-chlor-6-methylphenoxy)ethyl]amino-2-propanol [Compound 23]",,7/8,4/4,,,"MES, No. of protected animals/No. of used animals ([2]; dose 30 mg/kg b.w., time 0.5 h): 1/1; MES, No. of protected animals/No. of used animals [2, 6]: 1/1"
"R,S-1N-[(4-chlor-2-methylphenoxy)ethyl]amino-2-propanol [Compound 32]",,7/8,4/4,,,"TOX, No. of animals exhibiting motor impairment/no. of used animals (neurotoxicity (rotarod); mice, dose 300 mg/kg b.w., time 4 h): 1/1; MES, No. of protected animals/No. of used animals ([2]; dose 30 mg/kg b.w., time 0.5 h): 1/1; MES, No. of protected animals/No. of used animals [2, 6]: 3/3; MES, No. of protected animals/No. of used animals ([2]; dose 100 mg/kg b.w., time 4 h): 1/3; MES, No. of protected animals/No. of used animals ([2]; dose 300 mg/kg b.w., time 0.5 h): 1/1"
"R,S-2N-[(2,3-dimethylphenoxy)ethyl]amino-1-propanol [Compound 1]",,,,,,"TOX, No. of animals exhibiting motor impairment/no. of used animals (neurotoxicity (rotarod); mouse, in vivo, 100 mg/kg): 7/8; TOX, No. of animals exhibiting motor impairment/no. of used animals (neurotoxicity (rotarod); mouse, in vivo, 300 mg/kg): 4/4; MES, No. of protected animals/No. of used animals [2, 6]: 3/3"
"R,S-2N-[(4-chlor-2-methylphenoxy)ethyl]amino-1-propanol [Compound 33]",,4/8,4/4,,,"MES, No. of protected animals/No. of used animals [2, 6]: 3/3"
"R-(+)-2N-[(2,6-dimethylphenoxy)acetyl]amino-1-propanol [Compound 61]",,,,2/4,1/1,
